{
  "source": "PubChem BioAssay AID1963986",
  "about": "(Molecular Pharmacology Branch, DTP, NCI, 2024);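 further: spheroids exposed to compound for 7 days before viability read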;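 on viability, T/C: 100% = DMSO vehicle-treated spheroids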",
  "test_system": "171881-019-R-J1-PDC tumor spheroid viability",
  "assay": "Anticancer human tumor 171881-019-R-J1-PDC patient-derived invasive breast carcinoma cell line growth inhibition [PI3K]",
  "conditions": "spheroids with HUVEC and MSC; for IC50: curve of first compound; for viability, T/C: stronger effect = lower value",
  "excerpt": "Combinatorial screen of targeted agents with the PI3K inhibitors inavolisib, alpelisib, duvelisib, and copanlisib in multi-cell type tumor spheroids\nA high-throughput screen of multi-cell type tumor spheroids was designed to identify active combinations of targeted small molecules and PI3K pathway inhibitors. Complex spheroids include a stromal component modeled by human endothelial cells (HUVEC) and fibroblasts modeled by human mesenchymal stem cells (MSCs). The concentration ranges selected for each drug and investigational agent were based upon clinically achievable concentrations if the clinical Cmax of the agent was known.\nCompounds. The drugs and investigational agents: inavolisib (NSC800729), alpelisib (NSC765974), duvelisib (NSC772469), copanlisib (NSC816437), ipatasertib (NSC767898), afuresertib (NSC778305), talazoparib (NSC767125), sapanisertib (NSC764658), selumetinib (NSC741078), tovorafenib (DAY101, NSC766906), vemurafenib (NSC761431), ravoxertinib (NSC781343), sotorasib (NSC818433), MRTX1133 (NSC 836407), abemaciclib (NSC 768073), palbociclib (NSC758247), venetoclax (NSC 766270), SY5609 (NSC837396), enzalutamide (NSC755605), and darolutamide (NSC825331), were obtained from the National Cancer Institute (NCI) Developmental Therapeutics Program Chemical Repository. The FDA-approved anticancer drug set is available from the NCI Developmental Therapeutics Program. […] The stock solutions were prepared in dimethyl sulfoxide (DMSO, Sigma-Aldrich, St. Louis, MO, cat. D2650) at 800-fold the tested concentration and stored at -70 degrees C prior to their use. All drugs and investigational agents were tested over a range starting from a high concentration at or near the clinical Cmax and decreasing in half-log increments. If the clinical Cmax for an agent had not been determined, the highest concentration tested was 10 microM.\nCell Culture. All cells were maintained in an incubator at 37 degrees C and 5% CO2 with 95% humidity. The PDC lines were cultured according to standard operating procedures established by the NCI PDMR (https://pdmr.cancer.gov/sops/default.htm). All PDCs were thawed and cultured in Matrigel-coated flasks prepared with a working solution of 1X Ham's F-12 nutrient mix, without supplementation (Invitrogen, Waltham, MA, cat. 11765054), 100 U/mL penicillin-streptomycin (Invitrogen, cat. 15140122), and 2.5% Matrigel (Corning Inc., Corning, NY, cat. 354248) for the first three passages. The 354836-022-R-J1-PDC, 475296-252-R-J1-PDC, and 997726-040-R-J2-PDC lines were cultured in 6A media, which includes advanced DMEM/F-12 (Thermo Fisher Scientific, cat. 12634028), 10 mM HEPES (Thermo Fisher Scientific, cat. 15630080), 1X GlutaMAX supplement (Thermo Fisher Scientific, cat. 35050061), 0.1 mg/mL primocin (InvivoGen, San Diego, CA, cat. ant-pm-2), 10% defined fetal bovine serum, heat inactivated (HyClone Laboratories Inc., Logan, UT, cat. SH30070.03HI), 50% L-WRN conditioned media (ATCC, cat. CRL-3276), 1.25 mM N-Acetyl-L-cysteine (Sigma-Aldrich, cat. A9165), 10 mM nicotinamide (Sigma-Aldrich, cat. N0636), 1X B-27 supplement (Thermo Fisher Scientific, cat. 17504044), 1X N-2 supplement (Thermo Fisher Scientific, cat. 17502048), and 10 microM Y-27632 dihydrochloride (Tocris Bioscience, Bristol, United Kingdom, cat. 1254). The 624824-186-R-J2-PDC line was cultured in 6C/Colon 1B media, which includes all 6A media components plus 50 ng/mL human EGF recombinant protein (Thermo Fisher Scientific, cat. PHG0311). […]",
  "data": [
    {"smiles": "Cn1ncc(Cl)c1-c1cc(C(=O)NC(CN)Cc2cccc(F)c2)sc1Cl", "note": "(configuration not stated) + Cc1nc(NC(=O)N2CCCC2C(N)=O)sc1-c1ccnc(C(C)(C)C(F)(F)F)c1", "values": [
      {"measurement": "IC50", "setting": "second compound 0.0316 µM", "result": 155, "unit": "nM"},
      {"measurement": "IC50", "setting": "second compound 0.1 µM", "result": 90.7, "unit": "nM"},
      {"measurement": "IC50", "setting": "second compound 0.316 µM", "result": 32.9, "unit": "nM"},
      {"measurement": "IC50", "setting": "second compound 1 µM", "result": "< 31.6", "unit": "nM"},
      {"measurement": "IC50", "setting": "second compound 3.16 µM", "result": "< 31.6", "unit": "nM"},
      {"measurement": "IC50", "setting": "second compound 10 µM", "result": "< 31.6", "unit": "nM"},
      {"measurement": "viability, T/C", "setting": "second compound 0.0316 µM, first compound 0.0316 µM", "result": 77.8, "unit": "%"},
      {"measurement": "viability, T/C", "setting": "second compound 0.0316 µM, first compound 0.1 µM", "result": 60, "unit": "%"},
      {"measurement": "viability, T/C", "setting": "second compound 0.0316 µM, first compound 0.316 µM", "result": 34.2, "unit": "%"},
      {"measurement": "viability, T/C", "setting": "second compound 0.0316 µM, first compound 1 µM", "result": 20.2, "unit": "%"},
      {"measurement": "viability, T/C", "setting": "second compound 0.0316 µM, first compound 3.16 µM", "result": 11.4, "unit": "%"},
      {"measurement": "viability, T/C", "setting": "second compound 0.0316 µM, first compound 10 µM", "result": 4.55, "unit": "%"},
      {"measurement": "viability, T/C", "setting": "second compound 0.1 µM, first compound 0.0316 µM", "result": 71.3, "unit": "%"},
      {"measurement": "viability, T/C", "setting": "second compound 0.1 µM, first compound 0.1 µM", "result": 47.4, "unit": "%"},
      {"measurement": "viability, T/C", "setting": "second compound 0.1 µM, first compound 0.316 µM", "result": 31.6, "unit": "%"},
      {"measurement": "viability, T/C", "setting": "second compound 0.1 µM, first compound 1 µM", "result": 17.6, "unit": "%"},
      {"measurement": "viability, T/C", "setting": "second compound 0.1 µM, first compound 3.16 µM", "result": 11.4, "unit": "%"},
      {"measurement": "viability, T/C", "setting": "second compound 0.1 µM, first compound 10 µM", "result": 4.51, "unit": "%"},
      {"measurement": "viability, T/C", "setting": "second compound 0.316 µM, first compound 0.0316 µM", "result": 50.1, "unit": "%"},
      {"measurement": "viability, T/C", "setting": "second compound 0.316 µM, first compound 0.1 µM", "result": 42.2, "unit": "%"},
      {"measurement": "viability, T/C", "setting": "second compound 0.316 µM, first compound 0.316 µM", "result": 28.9, "unit": "%"},
      {"measurement": "viability, T/C", "setting": "second compound 0.316 µM, first compound 1 µM", "result": 16.3, "unit": "%"},
      {"measurement": "viability, T/C", "setting": "second compound 0.316 µM, first compound 3.16 µM", "result": 9.51, "unit": "%"},
      {"measurement": "viability, T/C", "setting": "second compound 0.316 µM, first compound 10 µM", "result": 4.96, "unit": "%"},
      {"measurement": "viability, T/C", "setting": "second compound 1 µM, first compound 0.0316 µM", "result": 32.2, "unit": "%"},
      {"measurement": "viability, T/C", "setting": "second compound 1 µM, first compound 0.1 µM", "result": 29.3, "unit": "%"},
      {"measurement": "viability, T/C", "setting": "second compound 1 µM, first compound 0.316 µM", "result": 19.2, "unit": "%"},
      {"measurement": "viability, T/C", "setting": "second compound 1 µM, first compound 1 µM", "result": 12.7, "unit": "%"},
      {"measurement": "viability, T/C", "setting": "second compound 1 µM, first compound 3.16 µM", "result": 8.96, "unit": "%"},
      {"measurement": "viability, T/C", "setting": "second compound 1 µM, first compound 10 µM", "result": 3.93, "unit": "%"},
      {"measurement": "viability, T/C", "setting": "second compound 3.16 µM, first compound 0.0316 µM", "result": 13.7, "unit": "%"},
      {"measurement": "viability, T/C", "setting": "second compound 3.16 µM, first compound 0.1 µM", "result": 13.4, "unit": "%"},
      {"measurement": "viability, T/C", "setting": "second compound 3.16 µM, first compound 0.316 µM", "result": 11.3, "unit": "%"},
      {"measurement": "viability, T/C", "setting": "second compound 3.16 µM, first compound 1 µM", "result": 8.81, "unit": "%"},
      {"measurement": "viability, T/C", "setting": "second compound 3.16 µM, first compound 3.16 µM", "result": 6.34, "unit": "%"},
      {"measurement": "viability, T/C", "setting": "second compound 3.16 µM, first compound 10 µM", "result": 1.66, "unit": "%"},
      {"measurement": "viability, T/C", "setting": "second compound 10 µM, first compound 0.0316 µM", "result": 3.8, "unit": "%"},
      {"measurement": "viability, T/C", "setting": "second compound 10 µM, first compound 0.1 µM", "result": 3.93, "unit": "%"},
      {"measurement": "viability, T/C", "setting": "second compound 10 µM, first compound 0.316 µM", "result": 3.32, "unit": "%"},
      {"measurement": "viability, T/C", "setting": "second compound 10 µM, first compound 1 µM", "result": 2.79, "unit": "%"},
      {"measurement": "viability, T/C", "setting": "second compound 10 µM, first compound 3.16 µM", "result": 1.39, "unit": "%"},
      {"measurement": "viability, T/C", "setting": "second compound 10 µM, first compound 10 µM", "result": 0.18, "unit": "%"}
    ]}
  ]
}
